Laboratory results taken from the OligoGym collection.
Several values for one entry are separate records, joined by “and”; a condition that tells them apart may be missing. Equal values may be shown once. After the bases stand the sugars from the 5' end (letter, count) and the backbone: PS all phosphorothioate, else s phosphorothioate and o phosphodiester by linkage. Methylation of C is not given here. e = 2'-O-(2-methoxyethyl) (MOE); d = 2'-deoxy (DNA)

Target: DGAT2
Conditions: ASO

| Sequence | target mRNA inhibition (HepG2, 2.5 µM) | target mRNA inhibition (HepG2, 10 µM) | target mRNA inhibition (HepG2, 0.12 µM) | target mRNA inhibition (HepG2, 20 µM) |
| --- | --- | --- | --- | --- |
| CCAATGCCTAGGTCACA (sugars e3 d10 e4, PS) | 61% | 83% | – | – |
| CCACCACCTAGAACAGGGCA (sugars e5 d10 e5, PS) | – | – | 55% | – |
| CCACTGGAGCACTGAGATGA (sugars e5 d10 e5, PS) | – | – | 71% | – |
| CCACTGTGACCTCCTGCCAC (sugars e5 d10 e5, PS) | – | – | 30% | – |
| CCAGCCCCCAGGTGTCGGAG (sugars e5 d10 e5, PS) | – | – | 50% | – |
| CCAGGTAAGGCCGTATGCCT (sugars e3 d14 e3, PS) | – | – | 71% | – |
| CCAGGTGTCGGAGGAGAAGA (sugars e5 d10 e5, PS) | – | – | 53% | – |
| CCAGTTTCGGACCCACTGTG (sugars e3 d14 e3, PS) | – | – | 82% | – |
| CCATGTCAGAGAGGCTC (sugars e3 d10 e4, PS) | 81% and 76% | – | – | – |
| CCATGTCAGAGAGGCTCAGC (sugars e5 d10 e5, PS) | 45% | 86% | – | – |
| CCCACTGGAGCACTGAGATG (sugars e2 d13 e5, PS) | – | – | 70% | – |
| CCCACTGGGACATCTGGCCC (sugars e5 d10 e5, PS) | 66% | 88% | – | – |
| CCCCCATCCTCATCCTGGAG (sugars e5 d10 e5, PS) | – | – | 7% | – |
| CCGGACTGAATGTCACC (sugars e3 d10 e4, PS) | 79% and 82% | – | – | – |
| CCTAAGGAGTGAGGGTATCT (sugars e5 d10 e5, PS) | 39% and 50% | 87% and 92% | – | – |
| CCTAGGTACAAGTTTCTCCA (sugars e5 d10 e5, PS) | 65% | 87% | – | – |
| CCTCAGGAAGGCACAGAAAA (sugars e5 d10 e5, PS) | – | – | 40% | – |
| CCTCCAGACATCAGGTACTC (sugars e5 d10 e5, PS) | – | – | 29% | – |
| CCTCCAGGACCTCAGTCTCC (sugars e5 d10 e5, PS) | – | – | 66% | – |
| CCTCCTCGAAGATCACCTGC (sugars e5 d10 e5, PS) | – | – | 49% | – |
| CCTCTCCTGTTTGATGGGTA (sugars e5 d10 e5, PS) | 78% and 85% and 87% | 91% and 78% and 88% | – | – |
| CCTCTTAGAAGTAATGCTTC (sugars e5 d10 e5, PS) | 83% and 78% | 92% and 90% | – | – |
| CCTTAGCTTTAATCCAGGAT (sugars e5 d10 e5, PS) | 70% | 89% | – | – |

| Sequence | target mRNA inhibition (HepG2, 2.5 µM) | target mRNA inhibition (HepG2, 10 µM) | target mRNA inhibition (HepG2, 0.12 µM) | target mRNA inhibition (HepG2, 20 µM) |
| --- | --- | --- | --- | --- |
| CGCAGGACCCCGGAGTAGGC (sugars e2 d13 e5, PS) | – | – | 71% | – |
| CGCAGGACCCCGGAGTAGGC (sugars e5 d10 e5, PS) | – | – | 75% and 70% | – |
| CGCGCAGGACCCCGGAGTAG (sugars e3 d14 e3, PS) | – | – | 69% | – |
| CGCGCAGGACCCCGGAGTAG (sugars e5 d10 e5, PS) | – | – | 74% | – |
| CGTTGGTCTTTTTGGCTGCC (sugars e5 d10 e5, PS) | 88% | 81% | – | – |
| CTATAGAATCAGACAGACCT (sugars e5 d10 e5, PS) | 31% | 78% | – | – |
| CTCACATGCCTGAGGGCAGC (sugars e5 d10 e5, PS) | 65% | 87% | – | – |
| CTCAGAGACTCAGCCGCACC (sugars e5 d10 e5, PS) | 30% | 91% | 80% | 54% |
| CTCTGCGCGATTCACTGAGG (sugars e5 d10 e5, PS) | 53% | 86% | – | – |
| CTGAATCAAAATCTGCATTT (sugars e5 d10 e5, PS) | – | – | 28% | – |
| CTGACACACAATATCCATGG (sugars e5 d10 e5, PS) | 76% and 57% | 93% and 85% | – | – |
| CTGCACTCTCTCTGCACACT (sugars e5 d10 e5, PS) | 65% and 83% | 81% and 90% | – | – |
| CTGCAGGCCACTCCCAGTAC (sugars e5 d10 e5, PS) | – | – | 40% | – |
| CTGCGCGATTCACTGAGGAC (sugars e5 d10 e5, PS) | 78% | 71% | – | – |
| CTGGAACTTCTTCTGGACCC (sugars e5 d10 e5, PS) | – | – | 25% | – |
| CTGGTCCAGGGAGAGACCAA (sugars e5 d10 e5, PS) | – | – | 25% | – |
| CTGGTGGTCAGCAGGTTGTG (sugars e5 d10 e5, PS) | – | – | 57% | – |
| CTGTGGCACTAAGCTAGGCA (sugars e5 d10 e5, PS) | 64% | 82% | – | – |
| CTTATCCTTGAGGGTCTCAT (sugars e5 d10 e5, PS) | 56% | 77% | – | – |
| CTTCACCAGCTGGATGGGAA (sugars e5 d10 e5, PS) | – | – | 36% | – |
| CTTCTTGCTCACTTCTGTGG (sugars e5 d10 e5, PS) | – | – | 25% | – |
| CTTGCTCACTTCTGTGGCCT (sugars e5 d10 e5, PS) | – | – | 48% | – |
| GAAAACTTAGGCATGCTTCC (sugars e5 d10 e5, PS) | 59% | 92% | – | – |
